Experimental findings from the Kinase Knowledgebase extract (Sharma et al. 2016) are described below.

In one assay the target is EGFR (human) (UniProt P00533).
Chain of EGFR (human) (P00533 whole entry, looked up): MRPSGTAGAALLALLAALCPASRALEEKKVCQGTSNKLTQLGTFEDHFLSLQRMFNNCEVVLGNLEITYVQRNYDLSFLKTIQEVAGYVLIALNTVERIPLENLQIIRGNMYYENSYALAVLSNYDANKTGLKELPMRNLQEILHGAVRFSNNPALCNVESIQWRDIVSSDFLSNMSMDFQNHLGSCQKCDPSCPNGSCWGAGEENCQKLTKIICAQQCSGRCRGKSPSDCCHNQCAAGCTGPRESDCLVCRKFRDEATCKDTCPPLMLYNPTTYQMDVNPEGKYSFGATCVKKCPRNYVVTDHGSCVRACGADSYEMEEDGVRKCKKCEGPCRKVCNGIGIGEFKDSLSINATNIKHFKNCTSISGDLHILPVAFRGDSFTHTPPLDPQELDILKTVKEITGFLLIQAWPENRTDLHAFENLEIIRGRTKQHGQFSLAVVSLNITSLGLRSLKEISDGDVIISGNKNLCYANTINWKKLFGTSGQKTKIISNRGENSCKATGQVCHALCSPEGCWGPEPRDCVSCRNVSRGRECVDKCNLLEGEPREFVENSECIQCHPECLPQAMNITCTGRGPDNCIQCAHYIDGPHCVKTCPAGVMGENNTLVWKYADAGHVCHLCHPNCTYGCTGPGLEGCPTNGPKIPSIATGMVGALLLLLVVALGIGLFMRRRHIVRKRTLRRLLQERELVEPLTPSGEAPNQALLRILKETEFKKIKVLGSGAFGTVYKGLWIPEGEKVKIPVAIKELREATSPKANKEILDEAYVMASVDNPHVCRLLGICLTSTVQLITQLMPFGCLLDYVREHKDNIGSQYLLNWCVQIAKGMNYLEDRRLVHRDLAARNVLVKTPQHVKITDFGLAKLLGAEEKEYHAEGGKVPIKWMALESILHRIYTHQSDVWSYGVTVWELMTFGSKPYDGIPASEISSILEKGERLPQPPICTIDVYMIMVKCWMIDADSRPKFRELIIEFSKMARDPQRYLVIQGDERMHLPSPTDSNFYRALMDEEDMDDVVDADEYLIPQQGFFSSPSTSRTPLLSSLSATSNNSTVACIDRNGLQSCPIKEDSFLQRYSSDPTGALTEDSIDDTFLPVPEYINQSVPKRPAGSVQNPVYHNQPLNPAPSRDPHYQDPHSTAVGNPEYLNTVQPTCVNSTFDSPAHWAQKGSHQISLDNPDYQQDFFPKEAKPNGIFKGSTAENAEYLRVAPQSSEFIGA
Assay: not given
As a reminder, the IC50 is the midpoint of a concentration-inhibition curve. With `COc1cc2ncnc(Nc3ccc(F)c(Cl)c3)c2cc1OCCCCC(=O)NO`, the IC50 was ≤ 100 nM.

`COc1cc2ncnc(Nc3ccc(F)c(Cl)c3)c2cc1OCCC(=O)NO`: the IC50 was ≤ 100 nM.

In the case of `C[C@@H](Nc1ncnc2[nH]c(-c3ccc(NC(=O)CCNCCCCCC(=O)NO)cc3)cc12)c1ccccc1`, the IC50 is ≤ 100 nM.

In the case of `COc1cc2ncnc(Nc3ccc(F)c(Cl)c3)c2cc1NC(=O)CCCCCCC(=O)NO`, the IC50 was ≤ 100 nM.

With `C#Cc1cccc(Nc2ncnc3cc(OC)c(OCCC(=O)NO)cc23)c1`, the half-maximal inhibitory concentration (IC50) is ≤ 100 nM.

As to `O=C(CCCCCNCc1ccc(-c2ccc3ncnc(Nc4ccc(OCc5cccc(F)c5)c(Cl)c4)c3c2)o1)NO`, the IC50 was ≤ 100 nM.

In the case of `COCCOc1cc2c(Nc3ccc(F)c(Cl)c3)ncnc2cc1OCCCCCCC(=O)NO`, the half-inhibitory concentration (IC50) is ≤ 100 nM.

Consider `COc1cc2ncnc(Nc3ccc(OCc4cccc(F)c4)c(Cl)c3)c2cc1OCCCCCCC(=O)NO`, for which the IC50 is ≤ 100 nM.

Regarding `O=C(CCCCOc1ccc2ncnc(Nc3ccc(F)c(Cl)c3)c2c1)NO`, the IC50 is ≤ 100 nM.

In the case of `O=C(CCOc1ccc2ncnc(Nc3ccc(F)c(Cl)c3)c2c1)NO`, the IC50 was ≤ 100 nM.

Turning to `COc1cc2ncnc(Nc3ccc(F)c(Cl)c3)c2cc1OCCCC(=O)NO`, the IC50 was ≤ 100 nM.

With `C#Cc1cc(Nc2ncnc3cc(OC)c(OCCCCCCC(=O)NO)cc23)ccc1O`, the 50% inhibitory concentration (IC50) is ≤ 100 nM.

Regarding `COCCOc1cc2ncnc(Nc3ccc(F)c(Cl)c3)c2cc1NC(=O)CCCCC(=O)NO`, the half-inhibitory concentration (IC50) was ≤ 100 nM.

As for `O=C(CCCCCCOc1ccc2ncnc(Nc3ccc(OCc4cccc(F)c4)c(Cl)c3)c2c1)NO`, the IC50 was ≤ 100 nM.

On to `C#Cc1cccc(Nc2ncnc3cc(OC)c(OCC(=O)NO)cc23)c1`, for which the concentration for half-maximal inhibition (IC50) was ≤ 100 nM.

With `COc1cc2ncnc(Nc3ccc(F)c(Cl)c3)c2cc1SCCCCC(=O)NO`, the IC50 is ≤ 100 nM.

As for `C#Cc1cccc(Nc2ncnc3cc(OCCCCCCC(=O)NO)c(OC)cc23)c1`, the 50% inhibitory concentration (IC50) was ≤ 100 nM.

In the case of `O=C(CCCCCOc1ccc2ncnc(Nc3ccc(F)c(Cl)c3)c2c1)NO`, the half-maximal inhibitory concentration (IC50) is ≤ 100 nM.

Take `COc1cc2ncnc(Nc3ccc(F)c(Cl)c3)c2cc1OCCCCCC(=O)NO`: the concentration for half-maximal inhibition (IC50) is ≤ 100 nM.

Turning to `COc1cc2ncnc(Nc3ccc(F)c(Cl)c3)c2cc1OCC(=O)NO`, the IC50 is ≤ 100 nM.

Take `C#Cc1cccc(Nc2ncnc3ccc(OCCCCC(=O)NO)cc23)c1`: the half-maximal inhibitory concentration (IC50) is ≤ 100 nM.

For the molecule `COCCOc1cc2ncnc(Nc3ccc(F)c(Cl)c3)c2cc1OCCCCCCC(=O)NO`, the IC50 is ≤ 100 nM.

As to `O=C(CCCCCCOc1ccc2ncnc(Nc3ccc(F)c(Cl)c3)c2c1)NO`, the IC50 was ≤ 100 nM.

As to `COc1cc2ncnc(Nc3ccc(F)c(Cl)c3)c2cc1OCCOc1ccc(C(=O)NO)cc1`, the IC50 is ≤ 100 nM.

As to `O=C(COc1ccc2ncnc(Nc3ccc(F)c(Cl)c3)c2c1)NO`, the half-inhibitory concentration (IC50) was ≤ 100 nM.

Take `C#Cc1cccc(Nc2ncnc3cc(OC)c(NC(=O)CCCCCCC(=O)NO)cc23)c1`: the IC50 is ≤ 100 nM.

With `C#Cc1cccc(Nc2ncnc3cc(OC)c(OCCCC(=O)NO)cc23)c1`, the IC50 is ≤ 100 nM.

Take `C[C@@H](Nc1ncnc2[nH]c(-c3ccc(NC(=O)CCNCCCCCCC(=O)NO)cc3)cc12)c1ccccc1`: the IC50 is ≤ 100 nM.

`COc1cc2ncnc(Nc3ccc(F)c(Cl)c3)c2cc1NC(=O)CCCC(=O)NO`: the IC50 was ≤ 100 nM.

`C#Cc1cccc(Nc2ncnc3cc(OC)c(NC(=O)CCCC(=O)NO)cc23)c1`: the IC50 was ≤ 100 nM.

Regarding `COCCOc1cc2ncnc(Nc3ccc(F)c(Cl)c3)c2cc1NC(=O)CCCCCCC(=O)NO`, the IC50 was ≤ 100 nM.

Take `COc1cc2ncnc(Nc3ccc(F)c(Cl)c3)c2cc1SCCCCCCC(=O)NO`: the IC50 is ≤ 100 nM.

Take `COCCOc1cc2ncnc(Nc3ccc(F)c(Cl)c3)c2cc1NC(=O)CCCC(=O)NO`: the half-maximal inhibitory concentration (IC50) is ≤ 100 nM.

`C#Cc1cccc(Nc2ncnc3ccc(OCC(=O)NO)cc23)c1`: the IC50 was ≤ 100 nM.

For the molecule `C#Cc1cccc(Nc2ncnc3cc(OCCOC)c(OCCCCCCC(=O)NO)cc23)c1`, the concentration for half-maximal inhibition (IC50) was ≤ 100 nM.

`COc1cc2ncnc(Nc3ccc(F)c(Cl)c3)c2cc1CCCCCC(=O)NO`: the IC50 was ≤ 100 nM.

With `C#Cc1cccc(Nc2ncnc3cc(OCCCCCCC(=O)NO)c(OCCOC)cc23)c1`, the 50% inhibitory concentration (IC50) was ≤ 100 nM.

As for `C#Cc1cccc(Nc2ncnc3cc(OC)c(NC(=O)CCCCC(=O)NO)cc23)c1`, the half-inhibitory concentration (IC50) is ≤ 100 nM.

Consider `C#Cc1cccc(Nc2ncnc3cc(OC)c(OCCCCCC(=O)NO)cc23)c1`, for which the half-inhibitory concentration (IC50) was ≤ 100 nM.

For the next assay, the target named is CDK2 (human) (UniProt P24941). The assay is described as follows: Enzyme Assay.
As for `CC(C)(C)c1cnc(CSc2cnc(NC(=O)CCCCCCC(=O)NO)s2)o1`, the IC50 is ≤ 100 nM.

In the case of `CC(C)(C)c1cnc(CSc2cnc(NC(=O)Cc3ccc(OCCCCC(=O)NO)cc3)s2)o1`, the IC50 is ≤ 100 nM.

On to `CC(C)(C)c1cnc(CSc2cnc(NC(=O)CCCCC(=O)NO)s2)o1`, for which the 50% inhibitory concentration (IC50) is ≤ 100 nM.

Turning to `CC(C)(C)c1cnc(CSc2cnc(NC(=O)CCCC(=O)NO)s2)o1`, the IC50 is ≤ 100 nM.

Consider `CC(C)(C)c1cnc(CSc2cnc(NC(=O)Cc3ccc(OCCCC(=O)NO)cc3)s2)o1`, for which the IC50 is ≤ 100 nM.

On to `CC(C)(C)c1cnc(CSc2cnc(NC(=O)CCCCCC(=O)NO)s2)o1`, for which the 50% inhibitory concentration (IC50) was ≤ 100 nM.
